The values that follow come from patent US20130287763A1, “COMBINATION THERAPY FOR TREATING CANCER COMPRISING AN IGF-1R INHIBITOR AND AN AKT INHIBITOR” (MERCK SHARP & DOHME CORP., priority 2010, published 2013).

Entries after “also recorded” stand apart in the source; their conditions may differ.

For assay [1], the system named is SW837 (KRASG12C) xenograft tumors. Kind of assay: SW837 xenograft growth assessment. It is filed as in vivo, mice. To be noted: compared to the vehicle treated group (FIG. 5). As to the method:
(§1) A suspension of human SKCO1 and SW837 cells (5×10^6) and HT29 (3×10^6) in Matrigel (Cat. #356231, BD Biosciences; 1:1 v/v) were injected subcutaneously into the right flank of 4-6 week old SCID Hairless Outbred (SHO), NOD SCID, or CD-1 nu/nu (Jackson Laboratories) mice, respectively. When tumors reached a size of ˜300 mm3 (Length*Width*Width*0.5), mice were randomized into treatment groups. […] Animals were weighed and tumor volumes were determined by calipering 2 times per week during the study and at termination. Tumor weight was measured and recorded at termination. On day 28 animals were sacrificed by CO2 asphyxiation. […] At time of sacrifice tumors pieces were collected for western blot analysis (snap frozen in liquid nitrogen) and for immunohistochemistry (10% neutral buffered formalin).

For assay [2], the system named is SKCO1 (KRASmut) xenograft tumors. The assay is described as follows: SKCO1 xenograft growth assessment. It is filed as in vivo, mice. The note with it: MK-0646 20 mg/kg i.p. once a week, MK-2206 140 mg/kg p.o. 3-times a week (FIG. 4). As to the method:
as §1

For assay [3], the system named is HT-29 cells. Kind of assay: Phospho-RTK arrays, HT-29 cells. It counts as cell-based, human. The protocol:
(§2) All CRC and NSCLC cell lines were obtained from ATCC and maintained in 10% fetal bovine serum, FBS (Hyclone) containing media (DMEM or RPMI; Invitrogen Inc) supplemented with pen-strep (Invitrogen) at 37° C. according to the instructions from ATCC.
(§3) About 2 million cells were cultured in 10 cm plates and protein lysates were prepared from a sub-confluent culture. 500 ug of protein lysate were incubated with RTK Arrays (R&D bioscience; cat# ARY001) and developed as detailed in the manual. The arrays were probed with HRP-conjugated P-Tyr antibody and then incubated with Super-Signal chemiluminescence substrate (Pierce) and blots were then exposed to a Kodak Biomax Light Film.

Assay [4] relates to HT-29 cells. The assay is described as follows: Western blot of HT-29 cells treated with increasing doses of MK-2206. It is filed as cell-based, human. To be noted: MK-2206 0.041-1.11 um, western blot (FIG. 1A). The protocol: All CRC and NSCLC cell lines were obtained from ATCC and maintained in 10% fetal bovine serum, FBS (Hyclone) containing media (DMEM or RPMI; Invitrogen Inc) supplemented with pen-strep (Invitrogen) at 37° C. according to the instructions from ATCC. Total protein lysates from cells (˜0.3 million) cultured in 6 well plates were generated by removing the media, rinsing once with PBS and lysing in NP-40 buffer (1% NP-40, 20 MM Tris-HCL (pH8.0), 137 mM NaCl, 10% glycerol, 2 mM EDTA, Mini Complete protease inhibitor, HALT phosphatase Inhibitor cocktail). Samples were western blotted with indicated total or phosphor-specific antibodies followed by a secondary antibody (Cell Signaling Technology, CST) and then incubated with SuperSignal chemiluminescence substrate (Pierce). The blots were then exposed to a Kodak Biomax Light Film. The antibodies against ERK, p-ERK (Thr202/Tyr204), AKT and p-AKT (Ser473), IGF1R13, S6K & P-S6K (T389), IRS1 & P-IRS1 (S302) and actin were obtained from CST. Total IGF1R antibody was obtained from Santa Cruz and GAPDH was obtained from Chemicon.

Another assay concerns IGF-1R signaling pathway. Kind of assay: Western blot analysis of IGF-1R/PI3K pathway activity in xenograft tumor samples. It counts as in vivo, mice. The note with it: 24 hrs after MK-0646 or 6 hrs after MK-2206 (FIG. 6). The protocol:
Total protein lysates from cells (˜0.3 million) cultured in 6 well plates were generated by removing the media, rinsing once with PBS and lysing in NP-40 buffer (1% NP-40, 20 MM Tris-HCL (pH8.0), 137 mM NaCl, 10% glycerol, 2 mM EDTA, Mini Complete protease inhibitor, HALT phosphatase Inhibitor cocktail). Samples were western blotted with indicated total or phosphor-specific antibodies followed by a secondary antibody (Cell Signaling Technology, CST) and then incubated with SuperSignal chemiluminescence substrate (Pierce). The blots were then exposed to a Kodak Biomax Light Film. The antibodies against ERK, p-ERK (Thr202/Tyr204), AKT and p-AKT (Ser473), IGF1R13, S6K & P-S6K (T389), IRS1 & P-IRS1 (S302) and actin were obtained from CST. Total IGF1R antibody was obtained from Santa Cruz and GAPDH was obtained from Chemicon. A suspension of human SKCO1 and SW837 cells (5×10^6) and HT29 (3×10^6) in Matrigel (Cat. #356231, BD Biosciences; 1:1 v/v) were injected subcutaneously into the right flank of 4-6 week old SCID Hairless Outbred (SHO), NOD SCID, or CD-1 nu/nu (Jackson Laboratories) mice, respectively. When tumors reached a size of ˜300 mm3 (Length*Width*Width*0.5), mice were randomized into treatment groups. […] Animals were weighed and tumor volumes were determined by calipering 2 times per week during the study and at termination. Tumor weight was measured and recorded at termination. […]

The test system of assay [5] is SKCO1 (CRC), HCC70 (breast cancer), H1793 (NSCLC) cells. Kind of assay: Phospho-RTK arrays, cell lines from different cancer types. To be noted: cell type-dependent. It is filed as cell-based, human. The protocol:
as §3, with “All CRC and NSCLC cell lines were obtained from ATCC and maintained in 10% fetal bovine serum, FBS (Hyclone) containing media (DMEM or RPMI; Invitrogen Inc) supplemented with pen-strep (Invitrogen) at 37° C. according to the instructions from ATCC. About” for “About”

The subject of a further assay is SW-837 cells. Kind of assay: Phospho-RTK arrays, SW-837 cells. It counts as cell-based, human. To be noted: SW-837, 20.95 ug/ml MK-0646, 18 hrs (FIG. 3C). The protocol:
as §2, §3

The mark [6] stands for this setting: HT-29 cells, 1 uM MK-2206, 18 hrs, RTK arrays (FIG. 1B).

The compound `NC1(c2ccc(-c3nc4ccn5c(=O)[nH]nc5c4cc3-c3ccccc3)cc2)CCC1` [MK-2206, 8-[4-(1-Aminocyclobutyl)phenyl]-9-phenyl[1,2,4]triazolo[3,4-f]-1,6-naphthyridin-3(2H)-one] registered a tumor growth inhibition in assay [1] of around 30%. Besides, in assay [2], the “tumor growth inhibition compared to vehicle treated control group” value was “significant growth inhibition; also recorded: significantly inhibited tumor growth”. Further, in the assay on HT-29 cells [3] (setting [6]), the “phosphorylation of IGF-1R” value is reported as “increase”; the “phosphorylation of IR and cMET” value is listed as “observed”. Moreover, in the assay on HT-29 cells [4], the “phosphorylation of AKT” value is “diminished in a dose dependent manner” and the “total IGF-1R levels” value is on record as “increase in a dose dependent manner”. Besides, the “IGF-1R signaling as measured by phosphorylation of IGF-1R” value with IGF-1R signaling pathway is “feedback activation of IGF-1R signaling”. In addition, the “RTK activity (Her2)” value in assay [5] (MK-2206, 18 hrs, RTK arrays (FIG. 2)) is reported as “can decrease”. For the same compound, the “phosphorylation of RTKs (IGF-1R, IR, cMET, Her2, Her3, EphA2)” value in assay [5] (SKCO1 370 nM, HCC70 370 nM, H1793 1 uM MK-2206, 18 hrs (FIG. 2)) is on record as “increasing the phosphorylation of multiple RTKs”.
As to “MK-0646: humanized antibody characterized as binding IGF-1R as well as the IR/IGF-1 hybrid receptor”, the “amount of active cMET and insulin receptor” value with SW-837 cells is “reduced”; with HT-29 cells [3] (HT-29, 20.95 ug/ml MK-0646, 18 hrs (FIG. 3A)) it was “reduced”. For the same compound, the tumor growth inhibition in assay [1] is listed as around 10%. Also, the “tumor growth inhibition compared to vehicle treated control group” value in assay [2] was “significant growth inhibition; also recorded: significantly inhibited tumor growth”.
